Our source for the Ki values is patent US11014911B2, “CDK2 inhibitors” (Pfizer Inc., priority 2019, dated 2021).

In experiment [1] the target is CDK2/Cyclin E1 full length (Homo sapiens (Human), UniProt P24941). In words: CDK2/Cyclin E1 full length mobility shift assay. The format is biochemical.
For the next experiment, the target named is GSK3β (H350L) (Homo sapiens (Human), UniProt P49841). The note with it: read-out: GSK3β Ki.
Chain of GSK3β (H350L) (P49841 whole entry, stated change not applied): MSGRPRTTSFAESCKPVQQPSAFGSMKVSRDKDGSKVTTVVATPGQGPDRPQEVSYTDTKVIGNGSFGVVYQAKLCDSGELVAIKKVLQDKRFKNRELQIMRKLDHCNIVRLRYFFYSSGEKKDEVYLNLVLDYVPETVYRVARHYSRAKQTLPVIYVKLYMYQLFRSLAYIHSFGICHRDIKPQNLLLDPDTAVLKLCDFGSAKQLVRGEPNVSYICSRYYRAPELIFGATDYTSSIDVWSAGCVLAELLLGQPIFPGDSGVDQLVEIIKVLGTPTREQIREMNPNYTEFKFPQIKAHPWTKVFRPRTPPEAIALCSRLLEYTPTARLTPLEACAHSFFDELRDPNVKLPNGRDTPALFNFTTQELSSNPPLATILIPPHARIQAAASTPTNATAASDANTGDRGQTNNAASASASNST

Description for GSK3β (H350L): The assay was initiated with the addition of ATP, following 15 minutes pre-incubation of enzyme and inhibitor at room temperature in the reaction mixture. The reaction was stopped after 30 minutes at room temperature by the addition of 50 μL of 80 mM EDTA.

In general, Ki refers to the dissociation constant of the complex between target and ligand, obtained from inhibition or displacement. For `CCN(C)C(=O)O[C@H]1CC[C@@H](c2cc(NC(=O)Cc3ccnc(OC)c3)n[nH]2)C1` [Example 241, (1S,3R)-3-(3-{[(2-methoxypyridin-4-yl)acetyl]amino}-1H-pyrazol-5-yl)cyclopentyl ethyl(methyl)carbamate], the values for the inhibitory constant (Ki) (in experiment [1]; at GSK3β (H350L)) were 1.04 nM and 13.4 nM, respectively.
For the compound `CCN(C)C(=O)O[C@@H]1CC[C@H](c2cc(NC(=O)Cc3ccnc(OC)c3)n[nH]2)C1` [Example 242, (1R,3S)-3-(3-{[(2-methoxypyridin-4-yl)acetyl]amino}-1H-pyrazol-5-yl)cyclopentyl ethyl(methyl)carbamate], the Ki in experiment [1] is 0.81 nM; on GSK3β (H350L) it was 9.7 nM.
Taken in the same sequence, the figures for `CCN(C)C(=O)O[C@H]1CC[C@@H](c2cc(NC(=O)Cc3ccc(OC)nc3)n[nH]2)C1` [Example 243, (1S,3R)-3-(3-{[(6-methoxypyridin-3-yl)acetyl]amino}-1H-pyrazol-5-yl)cyclopentyl ethyl(methyl)carbamate] were 0.75 nM and 5.35 nM.
On to `CCN(C)C(=O)O[C@@H]1CC[C@H](c2cc(NC(=O)Cc3ccc(OC)nc3)n[nH]2)C1` [Example 244, (1R,3S)-3-(3-{[(6-methoxypyridin-3-yl)acetyl]amino}-1H-pyrazol-5-yl)cyclopentyl ethyl(methyl)carbamate], for which the Ki stood at 0.57 nM in experiment [1] and 3.7 nM at GSK3β (H350L).
Taken in the same sequence, the figures for `CCN(C)C(=O)O[C@@H]1CC[C@H](c2cc(NC(=O)Cc3cc(F)cc(F)c3)n[nH]2)C1` [Example 245, (1R,3S)-3-(3-{[(3,5-difluorophenyl)acetyl]amino}-1H-pyrazol-5-yl)cyclopentyl ethyl(methyl)carbamate] were 0.53 nM and 19.2 nM.
On to `Cc1ccc(CC(=O)Nc2cc([C@H]3CC[C@@H](OC(=O)NCC(F)F)C3)[nH]n2)cn1` [Example 247, (1R,3S)-3-(3-{[(6-methylpyridin-3-yl)acetyl]amino}-1H-pyrazol-5-yl)cyclopentyl (2,2-difluoroethyl)carbamate], for which the Ki in experiment [1] worked out at 1.36 nM; at GSK3β (H350L), 12.2 nM.
In the case of `COc1ccc(CC(=O)Nc2cc([C@H]3CC[C@@H](OC(=O)NCC(F)F)C3)[nH]n2)cc1` [Example 250, (1R,3S)-3-(3-{[(4-methoxyphenyl)acetyl]amino}-1H-pyrazol-5-yl)cyclopentyl (2,2-difluoroethyl)carbamate], the inhibition constant (Ki) in experiment [1] was 1.62 nM; on GSK3β (H350L), 27.4 nM.
The matching figures for `COc1ccc(CC(=O)Nc2cc([C@H]3CC[C@@H](OC(=O)NCC(F)F)C3)[nH]n2)cn1` [Example 252, (1R,3S)-3-(3-{[(6-methoxypyridin-3-yl)acetyl]amino}-1H-pyrazol-5-yl)cyclopentyl (2,2-difluoroethyl)carbamate]: 1.39 nM and 10.6 nM.
For the compound `O=C(Cc1cc(F)cc(F)c1)Nc1cc([C@H]2CC[C@@H](OC(=O)NCC(F)F)C2)[nH]n1` [Example 253, (1R,3S)-3-(3-{[(3,5-difluorophenyl)acetyl]amino}-1H-pyrazol-5-yl)cyclopentyl (2,2-difluoroethyl)carbamate], the Ki was determined as 1.26 nM in experiment [1] and 28.8 nM at GSK3β (H350L).
As to `CCCCNC(=O)O[C@H]1CC[C@@H](c2cc(NC(=O)Cc3ccno3)n[nH]2)C1` [Example 258, (1S,3R)-3-{3-[(1,2-oxazol-5-ylacetyl)amino]-1H-pyrazol-5-yl}cyclopentyl butylcarbamate], the inhibition constant (Ki) in experiment [1] came to 0.74 nM; at GSK3β (H350L), 10.7 nM.
Taken in the same sequence, the figures for `CCCCNC(=O)O[C@@H]1CC[C@H](c2cc(NC(=O)Cc3ccno3)n[nH]2)C1` [Example 259, (1R,3S)-3-{3-[(1,2-oxazol-5-ylacetyl)amino]-1H-pyrazol-5-yl}cyclopentyl butylcarbamate] were 0.68 nM and 17.4 nM.
Take `CC(C)NC(=O)O[C@H]1CC[C@@H](c2cc(NC(=O)c3cnnn3C)n[nH]2)C1` [Example 261, (1S,3R)-3-(3-{[(1-methyl-1H-1,2,3-triazol-5-yl)carbonyl]amino}-1H-pyrazol-5-yl)cyclopentyl propan-2-ylcarbamate]: the values for the Ki (in experiment [1]; at GSK3β (H350L)) were 1 nM and 121 nM, respectively.
